Holding throughout (format): in vivo
What all share (set-up): scale not given here

Assay [1] has as its system Setaria viridis (L.) Beauv. In words: Herbicidal effect by upland field soil treatment. Particulars: active ingredient 1000 g/ha, examined at 21st day from treatment. The text has this:
(§1) An upland field soil was filled in a plastic pot of 80 cm^2. Seeds of Echinochloa crus-galli (L.) Beauv. var. crusgalli and Setaria viridis (L.) Beauv. were sowed, followed by covering with the same soil. […] Then, breeding was made in a greenhouse, and the herbicidal effect of each wettable powder was examined at the 21st day from the treatment in accordance with the standard shown in Table 21.

Assay [2] has as its system Echinochloa crus-galli (L.) Beauv. var. crusgalli. In words: Herbicidal effect by upland field soil treatment. Particulars: active ingredient 1000 g/ha, examined at 21st day from treatment.
Excerpt: as §1

Assay [3] has as its system Echinochloa crus-galli (L.) Beauv. var. crus-galli. Put plainly: Herbicidal effect by upland foliage treatment. Particulars: active ingredient 1000 g/ha, examined at 14th day from treatment. As to the method:
(§2) A sand was filled in a plastic pot of 80 cm^2. Seeds of Echinochloa crus-galli (L.) Beauv. var. crus-galli and Setaria viridis (L.) Beauv. were sowed. Breeding was made in a greenhouse for 2 weeks. Wettable powders produced in accordance with the Formulation 1 were diluted with water and sprayed on the whole foliage of plants from above the plants using a small sprayer in an amount of 1,000 liters per 1 hectare so that the amount of each active ingredient became 1,000 g per 1 hectare. Then, breeding was made in the greenhouse, and the herbicidal effect of each wettable powder was examined at the 14th day from the treatment in accordance with the standard shown in Table 21.

The subject of assay [4] is Setaria viridis (L.) Beauv. Put plainly: Herbicidal effect by upland foliage treatment. Particulars: active ingredient 1000 g/ha, examined at 14th day from treatment. The protocol:
as §2

For assay [5], the system named is Echinochloa oryzicola Vasing. In words: Herbicidal effect by paddy field soil treatment. To be noted: wettable powder, active ingredient 1000 g/ha, examined at the 21st day from the treatment. Put shortly:
(§3)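 Seeds sown in puddled paddy soil under 3 cm of water; the next day wettable powders diluted in water were dropped onto the water surface at 1,000 g active ingredient/ha. Plants grown in a greenhouse, with herbicidal effect scored on day 21 against a rating standard.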

Assay [6] concerns Monochoria vaginalis (Murm. f.) Presl var. plantaginea (Roxb.) Solms-Laub. Put plainly: Herbicidal effect by paddy field soil treatment. Particulars: wettable powder, active ingredient 1000 g/ha, examined at the 21st day from the treatment. Put shortly:
as §3

Regarding “5,5-dimethyl-[(4-methoxy-6-trifluoromethylpyrimidin-5-yl)-methylsulfonyl]-2-isoxazoline [8-0001]”, the “herbicidal effect (index per standard of Table 21), Setaria viridis (L.) Beauv.” value in assay [1] came out at 5; in assay [4], 4. For the same compound, the “herbicidal effect (index per standard of Table 21), Echinochloa curs-galli (L.) Beauv. Var. crus-galli” value in assay [2] and in assay [3] was 5 in each case. Further, in assay [5], the “Herbicidal effect index, Echinochloa oryzicola Vasing” value came out at 5. For the same compound, the “Herbicidal effect index, Monochoria vaginalis (Burm. F.) Presl var. plantaginea (Roxb.) Solms-Laub.” value (from here on “Herbicidal effect index … (Roxb.) Solms-Laub.”) in assay [6] is reported as 5.
Take `Cc1ccsc1CS(=O)(=O)C1=NOC(C)(C)C1` [1-0001]: the entries for the “herbicidal effect (index per standard of Table 21), Setaria viridis (L.) Beauv.” value in assay [1] and in assay [4] were 5 and 4, respectively. The “herbicidal effect (index per standard of Table 21), Echinochloa curs-galli (L.) Beauv. Var. crus-galli” value in assay [2] and in assay [3] was 5 throughout. Moreover, in assay [5], the “Herbicidal effect index, Echinochloa oryzicola Vasing” value is reported as 5. The “Herbicidal effect index … (Roxb.) Solms-Laub.” value in assay [6] stood at 5.
With `CC1(C)CC(S(=O)(=O)Cc2sccc2Cl)=NO1` [1-0004], the “herbicidal effect (index per standard of Table 21), Setaria viridis (L.) Beauv.” value is listed as 5 in assay [1] and 4 in assay [4]. Also, the “herbicidal effect (index per standard of Table 21), Echinochloa curs-galli (L.) Beauv. Var. crus-galli” value in assay [2] and in assay [3] was 5 in each case. Moreover, in assay [5], the “Herbicidal effect index, Echinochloa oryzicola Vasing” value was found to be 5. In assay [6], the “Herbicidal effect index … (Roxb.) Solms-Laub.” value was 5.
With `CC1(C)CC(S(=O)(=O)Cc2ccsc2)=NO1` [2-0003], the “herbicidal effect (index per standard of Table 21), Setaria viridis (L.) Beauv.” value in assay [1] is given as 5; in assay [4] it was 4. In addition, the “herbicidal effect (index per standard of Table 21), Echinochloa curs-galli (L.) Beauv. Var. crus-galli” value in assay [2] and in assay [3] was 5 each time. Further, the “Herbicidal effect index, Echinochloa oryzicola Vasing” value in assay [5] was 5. In assay [6], the “Herbicidal effect index … (Roxb.) Solms-Laub.” value was found to be 5.
Regarding `COc1cscc1CS(=O)(=O)C1=NOC(C)(C)C1` [2-0004], the “herbicidal effect (index per standard of Table 21), Setaria viridis (L.) Beauv.” value in assay [1] came to 5; in assay [4] it was 4. The “herbicidal effect (index per standard of Table 21), Echinochloa curs-galli (L.) Beauv. Var. crus-galli” value in assay [2] and in assay [3] was 5 each time. In addition, the “Herbicidal effect index, Echinochloa oryzicola Vasing” value in assay [5] stood at 5. Moreover, the “Herbicidal effect index … (Roxb.) Solms-Laub.” value in assay [6] worked out at 5.
Regarding `CC(=O)c1c(C)sc(C)c1CS(=O)(=O)C1=NOC(C)(C)C1` [2-0008], the “herbicidal effect (index per standard of Table 21), Setaria viridis (L.) Beauv.” value in assay [1] and in assay [4] was 5 throughout. In addition, the “herbicidal effect (index per standard of Table 21), Echinochloa curs-galli (L.) Beauv. Var. crus-galli” value in assay [2] and in assay [3] was 5 in each case. In assay [5], the “Herbicidal effect index, Echinochloa oryzicola Vasing” value turned out to be 5. Besides, the “Herbicidal effect index … (Roxb.) Solms-Laub.” value in assay [6] was 5.
On to `COC(=O)c1c(Cl)sc(Cl)c1CS(=O)(=O)C1=NOC(C)(C)C1` [2-0011], for which the “herbicidal effect (index per standard of Table 21), Setaria viridis (L.) Beauv.” value in assay [1] and in assay [4] was 4 each time. The “herbicidal effect (index per standard of Table 21), Echinochloa curs-galli (L.) Beauv. Var. crus-galli” value in assay [2] and in assay [3] was 5 in each case. The “Herbicidal effect index, Echinochloa oryzicola Vasing” value in assay [5] came to 5. The “Herbicidal effect index … (Roxb.) Solms-Laub.” value in assay [6] is 5.
Consider `Cn1ncc(CS(=O)(=O)C2=NOC(C)(C)C2)c1Cl` [3-0035], for which the figures for the “herbicidal effect (index per standard of Table 21), Setaria viridis (L.) Beauv.” value in assay [1] and in assay [4] were 5 and 4, respectively. Further, the “herbicidal effect (index per standard of Table 21), Echinochloa curs-galli (L.) Beauv. Var. crus-galli” value in assay [2] is reported as 5; in assay [3], 4. In addition, in assay [5], the “Herbicidal effect index, Echinochloa oryzicola Vasing” value turned out to be 5. For the same compound, the “Herbicidal effect index … (Roxb.) Solms-Laub.” value in assay [6] came out at 5.
`Cc1nn(C)c(Cl)c1CS(=O)(=O)C1=NOC(C)(C)C1` [3-0037]: the “herbicidal effect (index per standard of Table 21), Setaria viridis (L.) Beauv.” value is reported as 5 in assay [1] and 4 in assay [4]. Besides, the “herbicidal effect (index per standard of Table 21), Echinochloa curs-galli (L.) Beauv. Var. crus-galli” value in assay [2] and in assay [3] was 5 throughout. The “Herbicidal effect index, Echinochloa oryzicola Vasing” value in assay [5] is 5. Besides, in assay [6], the “Herbicidal effect index … (Roxb.) Solms-Laub.” value is listed as 5.
On to `Cn1nc(Cl)c(CS(=O)(=O)C2=NOC(C)(C)C2)c1Cl` [3-0038], for which the “herbicidal effect (index per standard of Table 21), Setaria viridis (L.) Beauv.” value in assay [1] and in assay [4] was 5 each time. For the same compound, the “herbicidal effect (index per standard of Table 21), Echinochloa curs-galli (L.) Beauv. Var. crus-galli” value in assay [2] and in assay [3] was 5 in each case. Further, the “Herbicidal effect index, Echinochloa oryzicola Vasing” value in assay [5] turned out to be 5. Further, the “Herbicidal effect index … (Roxb.) Solms-Laub.” value in assay [6] is recorded as 5.
In the case of `Cn1nc(C(F)(F)F)c(CS(=O)(=O)C2=NOC(C)(C)C2)c1Cl` [3-0039], the “herbicidal effect (index per standard of Table 21), Setaria viridis (L.) Beauv.” value in assay [1] and in assay [4] was 5 in each case. The “herbicidal effect (index per standard of Table 21), Echinochloa curs-galli (L.) Beauv. Var. crus-galli” value in assay [2] and in assay [3] was 5 throughout. Also, the “Herbicidal effect index, Echinochloa oryzicola Vasing” value in assay [5] is reported as 5. In addition, the “Herbicidal effect index … (Roxb.) Solms-Laub.” value in assay [6] is given as 5.
Regarding `CCOc1c(CS(=O)(=O)C2=NOC(C)(C)C2)c(C(F)(F)F)nn1C` [3-0044], the “herbicidal effect (index per standard of Table 21), Setaria viridis (L.) Beauv.” value in assay [1] was 5; in assay [4], 4. The “herbicidal effect (index per standard of Table 21), Echinochloa curs-galli (L.) Beauv. Var. crus-galli” value in assay [2] and in assay [3] was 5 throughout. Besides, the “Herbicidal effect index, Echinochloa oryzicola Vasing” value in assay [5] was determined as 5. Besides, the “Herbicidal effect index … (Roxb.) Solms-Laub.” value in assay [6] came to 5.
For `Cn1nc(C(F)(F)F)c(CS(=O)(=O)C2=NOC(C)(C)C2)c1OC1CCCCC1` [3-0049], the “herbicidal effect (index per standard of Table 21), Setaria viridis (L.) Beauv.” value in assay [1] is listed as 5; in assay [4], 4. Besides, the “herbicidal effect (index per standard of Table 21), Echinochloa curs-galli (L.) Beauv. Var. crus-galli” value came out at 5 in assay [2] and 4 in assay [3]. Further, the “Herbicidal effect index, Echinochloa oryzicola Vasing” value in assay [5] amounted to 5. For the same compound, in assay [6], the “Herbicidal effect index … (Roxb.) Solms-Laub.” value stood at 5.
Consider `CCn1nc(C(F)(F)F)c(CS(=O)(=O)C2=NOC(C)(C)C2)c1Cl` [3-0073], for which the “herbicidal effect (index per standard of Table 21), Setaria viridis (L.) Beauv.” value came out at 5 in assay [1] and 4 in assay [4]. The “herbicidal effect (index per standard of Table 21), Echinochloa curs-galli (L.) Beauv. Var. crus-galli” value in assay [2] and in assay [3] was 5 each time. Also, in assay [5], the “Herbicidal effect index, Echinochloa oryzicola Vasing” value is 5. Also, in assay [6], the “Herbicidal effect index … (Roxb.) Solms-Laub.” value is given as 5.
As to `CCn1nc(Cl)c(CS(=O)(=O)C2=NOC(C)(C)C2)c1C(F)(F)F` [3-0074], the results for the “herbicidal effect (index per standard of Table 21), Setaria viridis (L.) Beauv.” value in assay [1] and in assay [4] were 5 and 4, respectively. Also, the “herbicidal effect (index per standard of Table 21), Echinochloa curs-galli (L.) Beauv. Var. crus-galli” value in assay [2] and in assay [3] was 5 each time. In addition, the “Herbicidal effect index, Echinochloa oryzicola Vasing” value in assay [5] is listed as 5. Besides, in assay [6], the “Herbicidal effect index … (Roxb.) Solms-Laub.” value was found to be 5.
As to `CCC(C)n1nc(C(F)(F)F)c(CS(=O)(=O)C2=NOC(C)(C)C2)c1Cl` (stereo not drawn) [3-0081], the “herbicidal effect (index per standard of Table 21), Setaria viridis (L.) Beauv.” value in assay [1] came to 5; in assay [4], 4. Also, the “herbicidal effect (index per standard of Table 21), Echinochloa curs-galli (L.) Beauv. Var. crus-galli” value is on record as 5 in assay [2] and 4 in assay [3]. In addition, the “Herbicidal effect index, Echinochloa oryzicola Vasing” value in assay [5] amounted to 5. In assay [6], the “Herbicidal effect index … (Roxb.) Solms-Laub.” value was found to be 5.
Turning to `CCC(C)n1nc(Cl)c(CS(=O)(=O)C2=NOC(C)(C)C2)c1C(F)(F)F` (stereo not drawn) [3-0082], the results for the “herbicidal effect (index per standard of Table 21), Setaria viridis (L.) Beauv.” value in assay [1] and in assay [4] were 5 and 4, respectively. The “herbicidal effect (index per standard of Table 21), Echinochloa curs-galli (L.) Beauv. Var. crus-galli” value in assay [2] is on record as 5; in assay [3], 4. Besides, the “Herbicidal effect index, Echinochloa oryzicola Vasing” value in assay [5] is 5. For the same compound, in assay [6], the “Herbicidal effect index … (Roxb.) Solms-Laub.” value is recorded as 5.

For the origin of these results see patent US7238689B2, “Isoxazoline derivative and herbicide comprising the same as active ingredient” (Ihara Chemical Industry Co., Ltd., priority 2001, dated 2007).
